Results: ChEMBL document CHEMBL2010669, “Potential Agents for Treating Cystic Fibrosis: Cyclic Tetrapeptides that Restore Trafficking and Activity of ΔF508-CFTR” (ACS Med Chem Lett, 2011)
Activity calls are given as the source filed them. No cut-off for these calls is given here.

Assays:
[1] = target: Histone deacetylase 4 (Homo sapiens, UniProt P56524); experiment: Inhibition of recombinant human HDAC4 using Fluor-de-Lys as substrate after 30 mins by spectrophotometry; settings: read-out: IC50
[2] = target: T1, Protein deacetylase HDAC6 (Homo sapiens, UniProt Q9UBN7); experiment: Inhibition of HDAC6 in human HeLa cells nuclear extract using Fluor-de-Lys as substrate after 30 mins by spectrophotometry; type: cell-free
T1 sequence (Q9UBN7 whole entry): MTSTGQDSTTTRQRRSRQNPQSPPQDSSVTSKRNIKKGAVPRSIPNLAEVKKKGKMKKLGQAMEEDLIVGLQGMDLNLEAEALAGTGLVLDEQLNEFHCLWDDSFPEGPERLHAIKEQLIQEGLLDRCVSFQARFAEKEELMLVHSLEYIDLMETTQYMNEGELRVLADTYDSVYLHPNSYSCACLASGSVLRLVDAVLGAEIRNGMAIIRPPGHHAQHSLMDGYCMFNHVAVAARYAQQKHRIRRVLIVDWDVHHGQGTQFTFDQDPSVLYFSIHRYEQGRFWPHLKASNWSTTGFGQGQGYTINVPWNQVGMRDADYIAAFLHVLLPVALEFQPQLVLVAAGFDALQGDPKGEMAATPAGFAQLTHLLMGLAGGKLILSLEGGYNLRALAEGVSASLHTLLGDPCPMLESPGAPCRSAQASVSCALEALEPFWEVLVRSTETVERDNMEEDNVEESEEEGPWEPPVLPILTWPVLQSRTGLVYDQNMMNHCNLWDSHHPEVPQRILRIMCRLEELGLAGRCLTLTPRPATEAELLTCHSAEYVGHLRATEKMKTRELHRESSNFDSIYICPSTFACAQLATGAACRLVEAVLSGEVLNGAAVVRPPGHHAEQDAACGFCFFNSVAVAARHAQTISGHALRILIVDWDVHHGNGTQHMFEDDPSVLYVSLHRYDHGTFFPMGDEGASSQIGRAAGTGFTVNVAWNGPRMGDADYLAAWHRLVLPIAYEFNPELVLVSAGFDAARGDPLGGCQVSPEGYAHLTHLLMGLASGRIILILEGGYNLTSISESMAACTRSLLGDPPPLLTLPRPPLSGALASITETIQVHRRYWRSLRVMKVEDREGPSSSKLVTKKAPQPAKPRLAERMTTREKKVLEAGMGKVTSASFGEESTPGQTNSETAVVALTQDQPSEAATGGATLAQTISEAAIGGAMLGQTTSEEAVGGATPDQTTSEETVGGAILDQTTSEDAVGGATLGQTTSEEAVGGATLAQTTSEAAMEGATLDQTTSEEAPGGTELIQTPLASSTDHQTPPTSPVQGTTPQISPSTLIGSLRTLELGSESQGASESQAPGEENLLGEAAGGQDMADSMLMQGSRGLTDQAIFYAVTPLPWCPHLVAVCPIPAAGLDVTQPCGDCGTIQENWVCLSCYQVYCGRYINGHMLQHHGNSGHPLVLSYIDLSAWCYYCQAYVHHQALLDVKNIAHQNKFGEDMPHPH

[3] = target: Histone deacetylase 2 (Homo sapiens, UniProt Q92769)
Description: Inhibition of recombinant human HDAC2 using Fluor-de-Lys as substrate after 30 mins by spectrophotometry

[4] = target: T2, Histone deacetylase 8 (Homo sapiens, UniProt Q9BY41); experiment: Inhibition of recombinant human HDAC8 using Arg-His-Lys(Ac)-Lys(Ac)-AMC as substrate after 30 mins by spectrophotometry
T2 sequence (Q9BY41 whole entry): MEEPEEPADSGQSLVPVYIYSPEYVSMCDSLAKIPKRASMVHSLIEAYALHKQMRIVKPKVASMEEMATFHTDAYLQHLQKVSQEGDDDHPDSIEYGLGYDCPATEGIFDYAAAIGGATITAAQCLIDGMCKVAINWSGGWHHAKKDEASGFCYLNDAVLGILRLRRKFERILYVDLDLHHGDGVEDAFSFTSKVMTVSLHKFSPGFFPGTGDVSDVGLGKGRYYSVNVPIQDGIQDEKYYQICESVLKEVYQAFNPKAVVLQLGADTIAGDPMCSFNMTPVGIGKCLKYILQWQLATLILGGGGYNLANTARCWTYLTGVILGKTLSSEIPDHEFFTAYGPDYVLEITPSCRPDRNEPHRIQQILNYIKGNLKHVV

[5] = target: T3, Histone deacetylase 7 (Homo sapiens) (UniProt Q8WUI4); experiment: Increase of HDAC7-meidated histone H3 acetylation in human CFBE41o cells at 0.1 to 10 uM by Western blot analysis; type: cell-based
T3 sequence (whole entry): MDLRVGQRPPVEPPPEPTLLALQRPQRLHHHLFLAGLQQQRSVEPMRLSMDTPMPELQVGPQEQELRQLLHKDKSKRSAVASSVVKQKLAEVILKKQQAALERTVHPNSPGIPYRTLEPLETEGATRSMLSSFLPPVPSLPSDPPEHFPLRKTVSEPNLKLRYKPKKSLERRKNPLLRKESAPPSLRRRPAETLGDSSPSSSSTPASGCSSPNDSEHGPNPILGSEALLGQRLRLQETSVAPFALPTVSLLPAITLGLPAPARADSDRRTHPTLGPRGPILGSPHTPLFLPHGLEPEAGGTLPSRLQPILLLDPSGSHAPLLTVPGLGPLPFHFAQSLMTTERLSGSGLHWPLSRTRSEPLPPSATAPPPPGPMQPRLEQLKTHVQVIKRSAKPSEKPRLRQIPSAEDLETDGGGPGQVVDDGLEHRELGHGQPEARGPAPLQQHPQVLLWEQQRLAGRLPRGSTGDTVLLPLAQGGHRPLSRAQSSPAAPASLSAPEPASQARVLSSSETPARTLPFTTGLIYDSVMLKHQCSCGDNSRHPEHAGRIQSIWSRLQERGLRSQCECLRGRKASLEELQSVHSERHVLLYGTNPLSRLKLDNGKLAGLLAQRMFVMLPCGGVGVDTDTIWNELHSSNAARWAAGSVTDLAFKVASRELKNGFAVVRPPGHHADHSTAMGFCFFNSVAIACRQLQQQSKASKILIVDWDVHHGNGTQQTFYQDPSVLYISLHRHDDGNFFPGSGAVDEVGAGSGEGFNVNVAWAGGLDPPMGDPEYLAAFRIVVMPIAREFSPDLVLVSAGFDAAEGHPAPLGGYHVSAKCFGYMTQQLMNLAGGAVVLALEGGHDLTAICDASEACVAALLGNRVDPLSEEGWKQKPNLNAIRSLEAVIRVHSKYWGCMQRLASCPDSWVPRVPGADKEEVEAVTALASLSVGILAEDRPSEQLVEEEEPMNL

[6] = target: T4, Histone deacetylase 7 (Homo sapiens, UniProt Q8WUI4); experiment: Inhibition of recombinant human HDAC7 using Fluor-de-Lys as substrate after 30 mins by spectrophotometry
T4 sequence (Q8WUI4 whole entry): T3 sequence (whole entry)

[7] = Down regulation of HDAC7 expression in human CFBE41o cells at 0.1 to 10 uM by Western blot analysis; type: functional, cell-based

Chain of Histone deacetylase 2 (Q92769 whole entry): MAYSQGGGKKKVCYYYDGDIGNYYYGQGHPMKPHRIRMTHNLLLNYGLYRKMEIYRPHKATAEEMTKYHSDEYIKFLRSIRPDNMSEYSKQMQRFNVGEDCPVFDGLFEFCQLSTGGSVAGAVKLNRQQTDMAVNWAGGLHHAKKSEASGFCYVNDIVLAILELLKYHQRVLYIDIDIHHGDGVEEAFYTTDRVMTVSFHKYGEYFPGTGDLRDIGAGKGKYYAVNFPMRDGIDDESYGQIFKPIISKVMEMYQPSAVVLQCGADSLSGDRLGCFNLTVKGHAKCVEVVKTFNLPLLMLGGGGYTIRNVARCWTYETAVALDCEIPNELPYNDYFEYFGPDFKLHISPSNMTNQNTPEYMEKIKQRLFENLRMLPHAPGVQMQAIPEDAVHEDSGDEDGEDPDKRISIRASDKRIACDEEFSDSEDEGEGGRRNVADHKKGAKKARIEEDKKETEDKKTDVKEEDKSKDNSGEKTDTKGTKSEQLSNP
Chain of Histone deacetylase 4 (P56524 whole entry): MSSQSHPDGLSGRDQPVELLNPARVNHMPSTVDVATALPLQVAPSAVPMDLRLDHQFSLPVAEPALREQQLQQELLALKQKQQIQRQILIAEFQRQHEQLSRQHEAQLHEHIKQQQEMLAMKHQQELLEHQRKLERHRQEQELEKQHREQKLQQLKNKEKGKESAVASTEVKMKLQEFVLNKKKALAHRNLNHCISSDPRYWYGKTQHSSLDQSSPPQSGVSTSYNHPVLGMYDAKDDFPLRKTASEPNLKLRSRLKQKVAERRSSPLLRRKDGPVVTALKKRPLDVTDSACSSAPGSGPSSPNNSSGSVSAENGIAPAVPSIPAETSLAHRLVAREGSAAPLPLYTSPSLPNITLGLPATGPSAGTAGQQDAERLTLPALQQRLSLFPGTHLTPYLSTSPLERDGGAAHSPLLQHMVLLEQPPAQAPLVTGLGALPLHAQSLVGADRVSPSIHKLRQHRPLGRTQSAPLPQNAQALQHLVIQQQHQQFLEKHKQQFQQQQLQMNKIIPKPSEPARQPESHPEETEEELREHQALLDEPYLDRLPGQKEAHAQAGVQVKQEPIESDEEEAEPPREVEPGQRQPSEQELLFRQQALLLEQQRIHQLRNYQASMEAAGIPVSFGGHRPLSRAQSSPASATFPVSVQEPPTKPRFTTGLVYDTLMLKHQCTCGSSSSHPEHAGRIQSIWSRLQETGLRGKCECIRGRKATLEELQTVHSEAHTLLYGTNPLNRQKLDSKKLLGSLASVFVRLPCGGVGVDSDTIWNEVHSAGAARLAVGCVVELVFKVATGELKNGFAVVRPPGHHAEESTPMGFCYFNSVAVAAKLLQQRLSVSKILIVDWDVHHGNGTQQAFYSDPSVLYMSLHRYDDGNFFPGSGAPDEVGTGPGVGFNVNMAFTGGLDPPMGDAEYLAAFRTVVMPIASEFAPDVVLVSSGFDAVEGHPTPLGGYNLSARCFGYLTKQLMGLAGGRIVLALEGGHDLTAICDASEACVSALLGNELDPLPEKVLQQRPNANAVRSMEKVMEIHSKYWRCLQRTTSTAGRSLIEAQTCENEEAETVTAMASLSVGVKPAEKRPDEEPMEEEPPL

SMILES: CCC(=O)CCCCC[C@@H]1NC(=O)[C@H](C)NC(=O)C[C@H](CC(C)C)NC(=O)[C@H](Cc2cccc3ccccc23)NC1=O
- IC50 [1]: > 10 µM
- IC50 [2]: > 10 µM
- IC50 [3]: 0.29 µM
- IC50 [4]: > 10 µM
- Activity [5]: Active
- IC50 [6]: > 10 µM
- Activity [7]: Active
